Results taken from ChEMBL document CHEMBL3868641, “Discovery, characterization and biological evaluation of a novel (R)-4,4-difluoropiperidine scaffold as dopamine receptor 4 (D4R) antagonists” (Bioorg Med Chem Lett, 2016).

Legend:
[1] = Displacement of [3H]Spiperone from recombinant human Dopamine D4.4 receptor expressed in CHO-K1 cell membranes after 120 mins
CHO-K1 [2] = assay: Displacement of [3H] Spiperone from recombinant human Dopamine D4.4 receptor expressed in CHO-K1 cell membranes at 0.1 uM after 120 mins relative to control
[3] = Displacement of [3H] Spiperone from recombinant human Dopamine D4.4 receptor expressed in CHO-K1 cell membranes at 1 uM after 120 mins relative to control
[4] = molecular target: D(3) dopamine receptor (Homo sapiens) (UniProt P35462); assay: Displacement of [3H]Spiperone from recombinant human Dopamine D3 receptor expressed in CHO cell membranes at 10 uM after 120 mins relative to control
D(3) dopamine receptor (Homo sapiens), sequence (P35462 whole entry): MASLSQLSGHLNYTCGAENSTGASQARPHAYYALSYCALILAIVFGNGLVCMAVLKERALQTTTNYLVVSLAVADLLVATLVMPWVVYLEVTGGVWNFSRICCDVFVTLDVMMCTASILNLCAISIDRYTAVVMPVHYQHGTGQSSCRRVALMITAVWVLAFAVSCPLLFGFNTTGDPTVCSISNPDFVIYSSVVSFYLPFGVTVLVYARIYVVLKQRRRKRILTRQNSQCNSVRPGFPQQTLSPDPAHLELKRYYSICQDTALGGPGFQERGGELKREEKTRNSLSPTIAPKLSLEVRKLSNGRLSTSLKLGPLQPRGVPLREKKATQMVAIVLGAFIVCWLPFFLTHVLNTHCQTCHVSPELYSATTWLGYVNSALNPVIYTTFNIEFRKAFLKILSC

[5] = molecular target: D(2) dopamine receptor (Homo sapiens) (UniProt P14416); assay: Displacement of [3H]Spiperone from recombinant human Dopamine D2L receptor expressed in CHO cell membranes at 10 uM after 120 mins relative to control
D(2) dopamine receptor (Homo sapiens), sequence (P14416 whole entry): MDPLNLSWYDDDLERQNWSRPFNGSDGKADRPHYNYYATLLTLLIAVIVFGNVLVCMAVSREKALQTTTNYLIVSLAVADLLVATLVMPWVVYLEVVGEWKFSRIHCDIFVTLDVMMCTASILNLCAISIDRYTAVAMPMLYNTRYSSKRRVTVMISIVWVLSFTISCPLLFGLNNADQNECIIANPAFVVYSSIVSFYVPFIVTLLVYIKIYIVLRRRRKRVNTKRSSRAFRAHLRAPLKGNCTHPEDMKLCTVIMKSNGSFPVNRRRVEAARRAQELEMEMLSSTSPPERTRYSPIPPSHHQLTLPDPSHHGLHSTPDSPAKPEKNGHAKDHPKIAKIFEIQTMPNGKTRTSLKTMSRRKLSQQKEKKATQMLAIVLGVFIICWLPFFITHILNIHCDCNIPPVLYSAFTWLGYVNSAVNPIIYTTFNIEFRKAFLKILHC

[6] = molecular target: D(1B) dopamine receptor (Homo sapiens) (UniProt P21918); assay: Displacement of [3H]SCH-23390 from recombinant human Dopamine D5 receptor expressed in CHO cell membranes at 10 uM after 120 mins relative to control
D(1B) dopamine receptor (Homo sapiens), sequence (P21918 whole entry): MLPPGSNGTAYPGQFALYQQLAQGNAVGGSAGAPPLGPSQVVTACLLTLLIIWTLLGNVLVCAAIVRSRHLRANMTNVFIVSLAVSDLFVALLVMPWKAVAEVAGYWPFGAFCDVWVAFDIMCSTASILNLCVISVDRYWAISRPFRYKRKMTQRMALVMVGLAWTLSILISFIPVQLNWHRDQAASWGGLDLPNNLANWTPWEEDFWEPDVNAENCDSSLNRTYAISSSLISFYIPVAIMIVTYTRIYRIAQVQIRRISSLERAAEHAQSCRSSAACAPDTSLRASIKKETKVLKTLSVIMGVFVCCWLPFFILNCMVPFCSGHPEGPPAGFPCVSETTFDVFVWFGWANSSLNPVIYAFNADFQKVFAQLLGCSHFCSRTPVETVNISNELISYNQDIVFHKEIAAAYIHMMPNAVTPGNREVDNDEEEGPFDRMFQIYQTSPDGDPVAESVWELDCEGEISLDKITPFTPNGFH

[7] = molecular target: D(2) dopamine receptor (Homo sapiens) (UniProt P14416); assay: Displacement of [3H]Spiperone from recombinant human Dopamine D2S receptor expressed in CHO cell membranes at 10 uM after 120 mins relative to control
[8] = molecular target: D(1A) dopamine receptor (Homo sapiens) (UniProt P21728); assay: Displacement of [3H]SCH-23390 from recombinant human Dopamine D1 receptor expressed in CHO cell membranes at 10 uM after 120 mins relative to control
D(1A) dopamine receptor (Homo sapiens), sequence (P21728 whole entry): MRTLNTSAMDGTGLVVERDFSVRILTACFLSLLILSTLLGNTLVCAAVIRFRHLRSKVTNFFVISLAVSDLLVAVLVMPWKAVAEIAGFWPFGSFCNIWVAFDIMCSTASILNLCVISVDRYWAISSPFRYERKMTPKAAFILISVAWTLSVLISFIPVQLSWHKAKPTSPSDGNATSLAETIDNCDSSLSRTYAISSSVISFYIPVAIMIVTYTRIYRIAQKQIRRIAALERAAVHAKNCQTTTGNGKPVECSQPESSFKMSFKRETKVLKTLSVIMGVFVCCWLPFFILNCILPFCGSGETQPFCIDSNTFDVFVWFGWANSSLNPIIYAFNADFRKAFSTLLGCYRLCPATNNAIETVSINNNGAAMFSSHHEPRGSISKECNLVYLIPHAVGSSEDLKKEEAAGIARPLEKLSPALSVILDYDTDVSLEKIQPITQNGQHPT

[9] = Unbound fraction in human plasma by HPLC/MS based equilibrium dialysis method; type: ADME, cell-free
[10] = Plasma concentration in rat at 0.25 mg/kg, iv administered through cassette dosing after 0.25 hrs by LC/MS/MS analysis; type: ADME, organism-based
[11] = Unbound fraction in rat plasma by HPLC/MS based equilibrium dialysis method; type: ADME, cell-free
[12] = Intrinsic clearance in human liver microsomes by HPLC/MS analysis; type: ADME; conditions: read-out: CLH
[13] = Drug uptake in rat brain at 0.25 mg/kg, iv administered through cassette dosing after 0.25 hrs by LC/MS/MS analysis; type: ADME, organism-based; conditions: for concentration at 0.25 h: brain, read-out: Drug uptake
[14] = Intrinsic clearance in rat liver microsomes by HPLC/MS analysis; type: ADME; conditions: read-out: CLH
[15] = Ratio of drug level in brain to plasma in rat at 0.25 mg/kg, iv administered through cassette dosing after 0.25 hrs by LC/MS/MS analysis; type: ADME, organism-based
CHO-K1 [16] = assay: Displacement of [3H] Spiperone from recombinant human Dopamine D4.4 receptor expressed in CHO-K1 cell membranes at 10 nM after 120 mins relative to control
[17] = Displacement of [3H]Spiperone from recombinant human Dopamine D4.4 receptor expressed in CHO-K1 cell membranes at 10 uM after 120 mins relative to control

SMILES | IC50 [1] [µM] | Ki [1] [µM] | inhibition (CHO-K1 [2]) [%] | inhibition [3] [%] | inhibition [4] [%] | inhibition [5] [%] | inhibition [6] [%] | inhibition [7] [%] | inhibition [8] [%] | fraction unbound [9] | concentration at 0.25 h [10] [ng/mL] | fraction unbound [11] | CLint scaled [12] [mL/min/kg] | concentration at 0.25 h [13] [ng/g] | CLint scaled [14] [mL/min/kg] | Kp at 0.25 h [15] | inhibition (CHO-K1 [16]) [%] | inhibition [17] [%] | Drug uptake ([13]; in vivo, 0.25 h, BLD = below limit of detection)
COc1ccc2c(CN3CCC(F)(F)[C@@H](CCc4ccc(F)cc4)C3)c[nH]c2c1 | 0.62 | 0.17 | 64 | – | – | – | – | – | – | – | – | – | – | – | – | – | – | – | –
COc1ccc2c(CN3CCC(F)(F)[C@@H](CCc4cccc(F)c4)C3)c[nH]c2c1 | 0.53 | 0.15 | – | 62 | – | – | – | – | – | – | – | – | – | – | – | – | – | – | –
Fc1ccc2c(CN3CCC(F)(F)[C@@H](CCc4ccccc4F)C3)c[nH]c2c1 | 0.49 | 0.14 | – | 66 | 54 | 57 | < 50 | < 50 | < 50 | – | – | – | – | – | – | – | – | – | –
Fc1ccc(CC[C@@H]2CN(Cc3c[nH]c4cc(Cl)ccc34)CCC2(F)F)cc1 | 0.021 | 0.0058 | 85 | – | < 50 | 51 | < 50 | < 50 | < 50 | 0.001 | 14.9 | 0.003 | 99 | 19.6 | 582 | 1.3 | – | – | –
Fc1ccccc1CC[C@@H]1CN(Cc2c[nH]c3cc(Cl)ccc23)CCC1(F)F | 0.19 | 0.053 | – | 84 | – | – | – | – | – | 0.005 | 54.8 | 0.002 | 156 | 23.5 | 1300 | 0.4 | – | – | –
Fc1ccc(CC[C@H]2CN(Cc3c[nH]c4cc(F)ccc34)CCC2(F)F)cc1 | 0.32 | 0.089 | – | 75 | 52 | < 50 | < 50 | < 50 | < 50 | – | – | – | – | – | – | – | – | – | –
Fc1ccc(CC[C@@H]2CN(Cc3c[nH]c4cc(F)ccc34)CCC2(F)F)cc1 | 0.0074 | 0.0021 | – | – | 85 | 53 | < 50 | < 50 | < 50 | 0.004 | 13.2 | 0.011 | – | 25.5 | – | 1.9 | 59 | – | –
COc1ccc2c(CN3CCC(F)(F)C(CCc4ccccc4F)C3)c[nH]c2c1 (racemic) | 0.021 | 0.0059 | – | – | 80 | < 50 | < 50 | 66 | < 50 | – | – | – | – | – | – | – | – | 95 | –
FC1(F)CCN(Cc2ncn3ccccc23)CC1CCc1ccccc1 (racemic) | 0.12 | 0.034 | – | – | < 50 | < 50 | < 50 | < 50 | < 50 | – | – | – | – | – | – | – | – | 90 | –
COc1ccc2cc(CN3CCC(F)(F)[C@H](CCc4ccccc4)C3)c(OC)nc2c1 | 0.088 | 0.024 | – | 53 | – | – | – | – | – | – | – | – | – | – | – | – | – | – | –
Fc1ccc2[nH]cc(CN3CCC(F)(F)[C@H](CCc4ccccc4)C3)c2c1 | 0.059 | 0.0164 | – | 66 | – | – | – | – | – | – | – | – | – | – | – | – | – | – | –
COc1ccc2[nH]cc(CN3CCC(F)(F)C(CCc4ccccc4)C3)c2c1 (racemic) | 0.72 | 0.2 | – | – | < 50 | < 50 | < 50 | 52 | < 50 | – | – | – | – | – | – | – | – | 91 | –
Fc1ccc(CCC2CN(Cc3ncn4ccccc34)CCC2(F)F)cc1 (racemic) | 0.035 | 0.0097 | – | – | < 50 | < 50 | < 50 | < 50 | < 50 | – | – | – | – | – | – | – | – | 97 | –
Cc1ccc(CN2CCC(F)(F)[C@H](CCc3ccccc3)C2)cc1C | 0.23 | 0.063 | – | – | – | – | – | – | – | 0.005 | 44.4 | 0.004 | 108 | 93.7 | 1670 | 2.1 | – | 77 | –
Fc1ccc2c(CN3CCC(F)(F)[C@H](CCc4ccccc4F)C3)c[nH]c2c1 | 0.0141 | 0.0039 | 85 | – | 65 | 51 | < 50 | < 50 | < 50 | 0.005 | 30.4 | 0.05 | – | 38.9 | – | 1.3 | – | – | –
FC1(F)CCN(Cc2c[nH]c3cc(Cl)ccc23)C[C@H]1CCc1ccccc1 | 0.064 | 0.0177 | – | 59 | – | – | – | – | – | – | – | – | – | – | – | – | – | – | –
Fc1cccc(CCC2CN(Cc3c[nH]c4cc(F)ccc34)CCC2(F)F)c1 (racemic) | 0.077 | 0.021 | – | – | < 50 | < 50 | < 50 | < 50 | < 50 | – | – | – | – | – | – | – | – | 92 | –
Fc1ccc2c(CN3CCC(F)(F)[C@H](CCc4ccccc4)C3)c[nH]c2c1 | 0.023 | 0.0063 | – | 79 | – | – | – | – | – | 0.001 | 28.6 | 0.014 | 111 | 100 | 2490 | 3.5 | – | – | –
COc1ccc2c(CN3CCC(F)(F)[C@H](CCc4cccc(F)c4)C3)c[nH]c2c1 | 0.0186 | 0.0052 | 83 | – | 85 | 53 | < 50 | < 50 | < 50 | 0.003 | 39 | 0.002 | 300 | 43.5 | 1060 | 1.1 | – | – | –
Cc1ccc(CN2CCC(F)(F)C(CCc3ccccc3)C2)cc1C (racemic) | 0.3 | 0.082 | – | – | < 20 | < 20 | < 20 | < 20 | < 20 | – | – | – | – | – | – | – | – | 85 | –
Fc1ccc2[nH]cc(CN3CCC(F)(F)[C@@H](CCc4ccccc4)C3)c2c1 | – | – | – | – | – | – | – | – | – | 0.001 | 25.3 | 0.001 | 70.5 | – | 1910 | – | – | 55 | Bld
